Key:
[1] = Determination of hydrolytic stability (5:1 dioxane/buffer, HPLC); format: physicochemical; details: 5:1 dioxane/buffer solution, test ended after 24 or 192 hours, read-out: Hydrolytic stability t1/2
Experimental: The ester to be analyzed was dissolved in each case in a 5:1 mixture of dioxane and buffer solution (pH 1.2, pH 5.0 or pH 8.0) at 23° C. At different times, the content of ester and hydrolysis products (8S,11R,13S,14S,1 7S)-17-hydroxy-11-[4-((R)-1-hydroxyethyl)phenyl]-13-methyl-17-pentafluoroethyl-1,2,6,7,8,11,12,13,14,15,16,17-dodecahydrocyclopenta[a]phenanthren-3-one and/or (8S,11R,13S,14S,17S)-17-hydroxy-11-[4-((S)-1-hydroxyethyl)phenyl]-1 3-methyl-17-pentafluoroethyl-1,2,6,7,8,11,12,13,14,15,16,17-dodecahydrocyclopenta[a]phenanthren-3-one was determined by HPLC. The test was ended after 24 hours or 192 hours.

[2] = Determination of stability in human plasma; format: in vitro ADME
Experimental: (§1) A stock solution of 1.0 mg of the substance to be tested in a 9:1 mixture of acetonitrile and dimethyl sulphoxide was prepared. 20 μl of this stock solution were added at 37° C. to 1 ml of human plasma or rat plasma. To determine the content, 100 μl samples were each taken at different times. The enzyme activity was blocked by adding 300 μl of acetonitrile, the samples were centrifuged at 5000 rpm over 10 minutes and, in the supernatant, the content of ester and hydrolysis products (8S,11R,13S,14S,17S)-17-hydroxy-11-[4-((R)-1-hydroxyethyl)phenyl]-1 3-methyl-17-pentafluoroethyl-1,2,6,7,8,11,12,13,14,15,16,17-dodecahydrocyclopenta[a]phenanthren-3-one and/or (8S,11R,13S,14S,17S)-17-hydroxy-11-[4-((S)-1-hydroxyethyl)phenyl]-13-methyl-17-pentafluoroethyl-1,2,6,7,8,11,12,13,14,15,16,17-dodecahydrocyclopenta[a]phenanthrene-3-one was determined by HPLC. The concentration-time curves were used to calculate the degradation kinetics. The stability of the substance tested was reported as the half-life.

[3] = Determination of stability in rat plasma; format: in vitro ADME; details: 37° C., read-out: Stability t1/2 in rat plasma (converted)
Experimental: as §1

[4] = biological target: T1, human progesterone receptor A (Homo sapiens, UniProt P06401); experiment: Progesterone receptor transactivation test in stably transfected SK-N-MC cells (PR-A, MMTV-LUC reporter); format: cell-based; details: 0.1 nmol/l promegestone, 24 hours, read-out: PR-A IC50 (antagonistic potency)
T1 construct: expressed in transfected cells; host or cells: SK-N-MC human neuroblastoma cells, stably transfected with pRChPR-A-neo and pMMTV-LUC
T1 sequence (P06401 1-769 isoform P06401-2): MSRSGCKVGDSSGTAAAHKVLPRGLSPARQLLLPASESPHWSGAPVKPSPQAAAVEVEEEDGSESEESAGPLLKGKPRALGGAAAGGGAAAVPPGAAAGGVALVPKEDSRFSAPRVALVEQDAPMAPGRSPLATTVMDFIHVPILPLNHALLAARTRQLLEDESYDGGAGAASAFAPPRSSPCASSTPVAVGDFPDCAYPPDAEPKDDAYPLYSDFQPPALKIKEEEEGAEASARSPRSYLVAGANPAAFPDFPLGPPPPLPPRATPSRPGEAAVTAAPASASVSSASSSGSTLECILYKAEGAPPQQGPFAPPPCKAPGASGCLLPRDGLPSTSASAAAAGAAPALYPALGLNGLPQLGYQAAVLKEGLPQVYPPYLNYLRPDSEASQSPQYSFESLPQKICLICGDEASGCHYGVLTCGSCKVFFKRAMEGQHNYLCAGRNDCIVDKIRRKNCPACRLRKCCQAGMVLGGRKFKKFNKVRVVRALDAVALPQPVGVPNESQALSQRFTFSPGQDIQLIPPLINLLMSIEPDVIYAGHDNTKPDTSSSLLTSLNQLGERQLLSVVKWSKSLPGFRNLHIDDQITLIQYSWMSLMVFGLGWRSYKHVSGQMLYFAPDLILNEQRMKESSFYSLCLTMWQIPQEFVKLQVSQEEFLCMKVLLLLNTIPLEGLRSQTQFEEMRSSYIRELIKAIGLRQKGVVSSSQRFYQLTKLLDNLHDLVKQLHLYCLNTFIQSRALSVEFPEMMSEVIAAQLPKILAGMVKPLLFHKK
Experimental: (§2) Progesterone receptor-antagonistic action in stable transfectants of human neuroblastoma cells (SK-N-MC cells) with the human progesterone A or progesterone B receptor and an MN-LUC reporter construct SK-N-MC cells (human neuroblastoma cells) which have been stably transfected with plasmids expressing the human progesterone receptor B (pRChPR-B-neo) or the human progesterone receptor A (pRChPR-A-neo) and a reporter construct (pMMTV-LUC) were incubated for 24 hours either in the absence (negative control) or in the presence of ascending amounts of the particular test compound (0.01 nmol/l, 0.1 nmol/l, 1 […], 100 nmol/l and […]), in order to determine the agonistic efficacy. As a positive control of the reporter gene induction, the cells were treated with the synthetic gestagen promegestone (0.01 nmol/l, 0.1 nmol/l, 1 nmol/l, 10 nmol/l, 100 nmol/l and […]). To determine the antagonistic activity, the cells were treated with 0.1 nmol/l promegestone and additionally with ascending amounts of the particular test compound (0.01 nmol/l, 0.1 nmol/l, 1 nmol/l, 10 nmol/l, 100 nmol/l and […]). The activity of the reporter gene LUC (LUC=luciferase) was determined in the cell lysates and measured as RLU (relative light units). All measurements are reported as % efficacy and as EC50 and IC50 concentrations.

[5] = biological target: T2, human progesterone receptor B (Homo sapiens, UniProt P06401); experiment: Progesterone receptor transactivation test in stably transfected SK-N-MC cells (PR-B, MMTV-LUC reporter); format: cell-based; details: 0.1 nmol/l promegestone, 24 hours, read-out: PR-B IC50 (antagonistic potency)
T2 construct: expressed in transfected cells; host or cells: SK-N-MC human neuroblastoma cells, stably transfected with pRChPR-B-neo and pMMTV-LUC
T2 sequence (P06401 1-933): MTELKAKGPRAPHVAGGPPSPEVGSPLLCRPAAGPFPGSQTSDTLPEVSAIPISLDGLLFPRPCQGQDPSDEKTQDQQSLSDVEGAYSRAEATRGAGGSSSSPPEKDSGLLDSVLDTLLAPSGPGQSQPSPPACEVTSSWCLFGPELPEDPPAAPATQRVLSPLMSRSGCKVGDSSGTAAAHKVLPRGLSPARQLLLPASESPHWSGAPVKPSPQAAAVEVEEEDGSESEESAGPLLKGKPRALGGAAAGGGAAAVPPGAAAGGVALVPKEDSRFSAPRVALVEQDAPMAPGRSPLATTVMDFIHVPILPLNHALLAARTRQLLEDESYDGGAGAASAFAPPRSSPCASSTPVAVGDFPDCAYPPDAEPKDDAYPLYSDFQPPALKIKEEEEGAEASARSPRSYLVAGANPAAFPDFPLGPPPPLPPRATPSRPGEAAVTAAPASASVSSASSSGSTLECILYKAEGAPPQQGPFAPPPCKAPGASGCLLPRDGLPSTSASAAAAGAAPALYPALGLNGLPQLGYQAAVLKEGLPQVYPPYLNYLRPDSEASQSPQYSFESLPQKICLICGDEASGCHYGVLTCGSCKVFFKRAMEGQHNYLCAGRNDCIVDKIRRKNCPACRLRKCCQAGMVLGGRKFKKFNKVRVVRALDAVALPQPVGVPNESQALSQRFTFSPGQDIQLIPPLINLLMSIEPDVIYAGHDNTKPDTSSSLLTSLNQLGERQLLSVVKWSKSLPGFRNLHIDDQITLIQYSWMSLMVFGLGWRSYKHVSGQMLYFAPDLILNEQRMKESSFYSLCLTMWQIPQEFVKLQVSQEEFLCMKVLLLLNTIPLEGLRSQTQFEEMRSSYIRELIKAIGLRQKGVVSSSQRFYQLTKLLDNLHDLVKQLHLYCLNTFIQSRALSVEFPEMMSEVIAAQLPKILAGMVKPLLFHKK
Experimental: as §2

## C=CCOC(=O)N[C@H](C(=O)OC(C)c1ccc([C@H]2C[C@@]3(C)C(CC[C@@]3(O)C(F)(F)C(F)(F)F)C3CCC4=CC(=O)CCC4=C32)cc1)C(C)C (mixture of isomers) [Example 16, (S)-2-Allyloxycarbonylamino-3-methylbutyric acid (RS)-1-[4-((8S,11R,13S,14S,17S)-17-hydroxy-1 3-methyl-3-oxo-1 7-pentafluoroethyl-2,3,6,7,8,11,12,13,14,15,16,17-dodecahydro-1H-cyclopenta[a]phenanthren-11-yl)phenyl]ethyl ester]
[1]; pH = 1.2, 23° C.
  half-life: > 8 days
[1]; pH = 8.0, 23° C.
  half-life: > 8 days
[2]; 37° C., read-out: Stability t1/2 in human plasma (converted)
  half-life: > 41.7 days
[2]; method of working example 19, summary statement in description, read-out: half-life in human plasma
  half-life: > 4.17 days
[3]
  half-life: 1990 min
[4]
  IC50: 0.11 nM
[5]
  IC50: 0.71 nM

— US9096639B2, “17-hydroxy-17-pentafluorethyl-estra-4,9(10)-dien-11-acyloxyalkylene phenyl derivatives, methods for the production thereof and use thereof for treating diseases” (Bayer Intellectual Property GmbH, priority 2009, dated 2015)
